Results on two molecules are retold here after publication PMC11456426, “Study of transport, tissue distribution, depletion, and hepatotoxicity of Cyadox, a quinoxaline-1,4-dioxide derivative” (Frontiers in Pharmacology, 2024).

Where two headings read alike, the source gives them in different places.

Series [1] concerns the target T1, bovine serum albumin (BSA) (Bos taurus, UniProt P02769). Put plainly: Fluorescence quenching of BSA by CYA (Stern-Volmer and binding constants). Conditions: for Kd: read-out: KA (binding constant) (converted). Here is the method:
The concentration of CYA was varied at 0, 0.33, 0.66, 1.0, 1.33, 1.66, and 2.0 × 10^−6 M.
Steady-state fluorescence spectra were performed on a FP-6500 spectrofluorimeter (Jasco, Japan) equipped with a thermostatic bath and 1.0 cm quartz cell. Fluorescence emission spectra were recorded at 300, 305, and 310 K in the range of 295 nm–500 nm. The excitation and emission slits with a band pass of 5 nm were used for all the measurements.
Synchronous fluorescence spectra were performed when the D-values between the excitation and emission wavelengths were set at 15 and 60 nm. Fluorescence excitation spectra were recorded at 302, 307, and 312 K in the range of 200–400 nm.
The Stern–Volmer equation below was used to analyze the fluorescence quenching data and confirm the quenching mechanism ([Zhou et al., 2022]): F0/F=1+KSVQ=1+kqτ0Q , where F 0 and F are the fluorescence intensities before and after the addition of the quencher CYA, K sv is the Stern–Volmer quenching constant, k q is the bimolecular quenching constant, τ 0 is the lifetime of the fluorophore in the absence of the quencher (10^−8 s), and [Q] is the concentration of the quencher. The Stern–Volmer quenching constant K sv is inversely correlated with temperature, and the k q values are much greater than the maximum scattering collisional quenching constant (2.0 × 10^10 M^−1S^−1).
For static quenching, the equilibrium between the free and bound molecules is given by the following equation: logF0−F/F=logKA+nlogQ , where K A is the binding constant, and n is the number of binding sites. […] Moreover, the values of n were approximately equal to 1, which indicated the presence of one binding site in the BSA–CYA system.

Another series has as its system liver. Put plainly: Hepatotoxicity by liver transcriptomics. The note with it: mice, CYA 1,000 mg/kg bw, 7 days. The series is classed as in vivo, KM mice. The method, then:
For the hepatotoxicity study, a group of four mice (2 male and 2 female, KM) were administered CYA at a dose of 1,000 mg/kg bw. Another group of four mice received saline as a control. After 7 days, the mice were anaesthetised, sacrificed and their livers collected. A total of eight samples from 2 groups of the obtained livers were sent to Majorbio Technology Co., Ltd. (Shanghai, China) for testing, divided into the blank group (control; A1, A2, A3, A4) and the drug group administered CYA (drug; B1, B2, B3, B4), with 4 samples in each group. Sequencing was performed using the Meiji Medical Reference Transcriptome Sequencing Platform to complete the transcriptome analysis of eight samples. The raw reads were deposited into the NCBI Sequence Read Archive (SRA) database (BioProject: Number: PRJNA1082257).
Differently expressed genes are genes with significant differences obtained by computing the expression of all genes between different groups after transcriptome sequencing. On the Meggie Bio platform, differential gene analysis was carried out between groups by quantifying the expression results to obtain the genes that were differentially expressed between the two groups, and the differential analysis software was: DESeq2, the screening threshold was: |log2FC| ≥0 and padjust< 0.05, and the specific results are shown in Figure 5B below.

Series [2] addresses T1, bovine serum albumin (BSA). Put plainly: Circular dichroism spectra of the BSA-CYA system. Conditions: 1.0 × 10^−6 M BSA with 1.0 × 10^−6 M CYA, pH 7.4, 312 K. The series is classed as binding. The method, then:
For CD studies, the final concentration of BSA and CYA was 1.0 × 10^−6 M. The CD spectra were recorded at 312 K with a Jasco-810 spectropolarimeter (Jasco, Japan) using a 0.1 cm quartz cuvette. Three scans were accumulated at a scan speed of 200 nm min^−1, with data being collected every 0.2 nm from 200 nm to 260 nm at 312 K.
(Circular dichroism is the unequal absorption of left and right circularly polarised light.)

The test system of a further series is testis. Set-up: method as in Ihsan et al., 2011. Conditions: ref Ihsan et al., 2011, cited from earlier work.

T1 sequence (P02769 25-607): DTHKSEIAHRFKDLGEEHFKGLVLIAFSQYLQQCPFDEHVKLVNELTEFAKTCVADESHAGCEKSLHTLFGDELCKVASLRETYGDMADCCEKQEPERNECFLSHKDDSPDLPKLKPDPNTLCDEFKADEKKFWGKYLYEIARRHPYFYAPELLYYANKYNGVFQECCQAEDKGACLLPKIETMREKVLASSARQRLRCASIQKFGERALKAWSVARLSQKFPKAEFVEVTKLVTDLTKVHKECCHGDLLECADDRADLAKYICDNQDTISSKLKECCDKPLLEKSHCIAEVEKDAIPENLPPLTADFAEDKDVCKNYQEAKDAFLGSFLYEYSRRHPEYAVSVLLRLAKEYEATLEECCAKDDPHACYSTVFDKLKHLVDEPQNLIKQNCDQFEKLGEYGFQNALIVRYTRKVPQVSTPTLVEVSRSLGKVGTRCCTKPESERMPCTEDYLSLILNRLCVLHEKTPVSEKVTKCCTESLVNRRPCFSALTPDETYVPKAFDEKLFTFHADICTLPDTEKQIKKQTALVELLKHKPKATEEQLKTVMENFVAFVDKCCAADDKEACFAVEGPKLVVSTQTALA

With `N#CCC(=O)NN=Cc1c[n+]([O-])c2ccccc2[n+]1[O-]` [CYA, (2-formylquinoxaline)-N1,N4-dioxide cyanoacetylhydrazone], in series [1] (T 302 K, pH 7.4), the “Ksv (Stern-Volmer quenching constant)” value turned out to be 86500 M⁻¹, the “kq (bimolecular quenching constant)” value is given as 8.65 × 10^12 M^−1S^−1, the “n (number of binding sites)” value turned out to be 1.139 and the Kd was 5.71 µM. Besides, in series [1] (T 307 K, pH 7.4), the “Ksv (Stern-Volmer quenching constant)” value was 40700 M⁻¹, the “kq (bimolecular quenching constant)” value is reported as 4.07 × 10^12 M^−1S^−1, the “n (number of binding sites)” value was 0.915 and the Kd is 103 µM. In series [1] (T 312 K, pH 7.4), the “Ksv (Stern-Volmer quenching constant)” value stood at 33600 M⁻¹, the “kq (bimolecular quenching constant)” value is listed as 3.36 × 10^12 M^−1S^−1, the “n (number of binding sites)” value was determined as 0.931 and the Kd is 178 µM. Besides, the “n (number of binding sites)” value in series [1] (all temperatures) is approximately 1. Moreover, in the series with liver, the “cell-process differential genes associated with apoptosis” value is on record as “none”; the “direction of change of lipid metabolism / steroid biosynthesis related genes” value is recorded as “predominantly downregulated”; the “expression of StAR, P450scc, and 17β-HSD (liver transcriptomic data)” value is on record as “no significant decrease”; the “genes expressed uniquely after administration of the drug” value came to 249. Also, in the series with liver, the “genes of lipid metabolism-related pathways with significant changes” value was 25, the “hepatotoxicity (transcriptomic assessment)” value was “low hepatotoxicity” and the “significantly different genes associated with cell processes” value stood at 23. The “genes significantly downregulated in liver, drug group vs blank group” value in the series with liver (DESeq2, padjust< 0.05) was 176. For the same molecule, the “BSA secondary structure, turns” value in series [2] (BSA alone 19%) amounted to 26%. For the same molecule, in series [2] (BSA alone 20%), the “BSA secondary structure, α-helix” value amounted to 21%. Further, the “BSA secondary structure, unordered” value in series [2] (BSA alone 26%) was found to be 25%. The “BSA secondary structure, β-strand” value in series [2] (BSA alone 35%) is 28%.

Turning to `CC(=O)c1c(C)[n+]([O-])c2ccccc2[n+]1[O-]` [MEQ, Mequindox], the “mRNA expression levels of AR and 3β-HSD” value with testis (110 mg/kg vs control group) is “significantly increased”. The “mRNA expression levels of StAR, P450scc, and 17β-HSD in the testis” value in the series on testis (275 mg/kg vs control group) is recorded as “significantly reduced”.
